Measured values from ChEMBL document CHEMBL1201862, “PubChem BioAssay data set” (2004).
Active and inactive are the calls of the source.

Assays:
[1] = biological target: T1, E3 ubiquitin-protein ligase XIAP (Homo sapiens, UniProt P98170); test: XIAP antagonists, biochemical, IAP family, fluorescence polarization (AID 1018); assay type: functional
[2] = biological target: T1, E3 ubiquitin-protein ligase XIAP; test: Counter Screen using XIAP-Bir3 for Chemical Antagonists of Bir1/2 domains of IAP-family anti-apoptotic proteins. [Related pubchem assays (depositor defined):AID1018, AID1449, AID1514, AID1638, AID1749, AID1750, AID488957, AID488963]
[3] = biological target: T2, Tyrosine-protein phosphatase non-receptor type 22 (Homo sapiens, UniProt Q9Y2R2); assay type: functional
T2 sequence (Q9Y2R2 whole entry): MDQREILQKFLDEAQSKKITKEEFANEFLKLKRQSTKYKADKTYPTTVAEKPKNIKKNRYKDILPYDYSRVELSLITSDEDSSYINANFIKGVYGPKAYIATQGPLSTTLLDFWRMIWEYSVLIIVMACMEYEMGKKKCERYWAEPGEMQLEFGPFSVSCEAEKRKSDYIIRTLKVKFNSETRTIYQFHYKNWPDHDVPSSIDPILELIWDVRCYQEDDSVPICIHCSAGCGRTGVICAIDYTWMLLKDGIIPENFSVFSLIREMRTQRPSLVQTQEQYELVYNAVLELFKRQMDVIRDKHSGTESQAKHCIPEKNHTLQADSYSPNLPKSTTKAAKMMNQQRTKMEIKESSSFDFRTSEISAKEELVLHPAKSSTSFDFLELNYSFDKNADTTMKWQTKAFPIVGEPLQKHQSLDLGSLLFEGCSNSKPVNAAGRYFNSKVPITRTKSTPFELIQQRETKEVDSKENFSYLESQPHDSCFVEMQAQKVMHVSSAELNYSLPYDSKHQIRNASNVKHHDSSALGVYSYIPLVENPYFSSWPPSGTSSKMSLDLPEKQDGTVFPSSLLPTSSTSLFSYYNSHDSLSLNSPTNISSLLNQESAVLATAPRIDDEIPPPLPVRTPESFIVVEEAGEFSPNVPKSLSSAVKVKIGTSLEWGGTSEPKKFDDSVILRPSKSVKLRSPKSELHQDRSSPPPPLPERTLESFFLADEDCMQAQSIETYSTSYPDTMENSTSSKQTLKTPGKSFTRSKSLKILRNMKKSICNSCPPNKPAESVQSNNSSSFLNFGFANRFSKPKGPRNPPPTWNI

[4] = biological target: T2, Tyrosine-protein phosphatase non-receptor type 22; assay type: functional; remark: listed apart in the source
[5] = biological target: T3, Tyrosine-protein phosphatase non-receptor type 7 (Homo sapiens, UniProt P35236); assay type: functional
T3 sequence (P35236 whole entry): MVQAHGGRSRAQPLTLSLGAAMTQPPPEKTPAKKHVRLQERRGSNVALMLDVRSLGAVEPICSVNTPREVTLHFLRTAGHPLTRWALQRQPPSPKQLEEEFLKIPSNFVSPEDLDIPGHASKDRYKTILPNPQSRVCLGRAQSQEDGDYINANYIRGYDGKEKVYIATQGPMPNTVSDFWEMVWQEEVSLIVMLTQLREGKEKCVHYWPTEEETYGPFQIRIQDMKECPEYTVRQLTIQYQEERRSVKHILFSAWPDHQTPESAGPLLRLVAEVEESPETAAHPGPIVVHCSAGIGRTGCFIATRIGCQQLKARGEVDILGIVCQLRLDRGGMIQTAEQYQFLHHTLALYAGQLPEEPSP

[6] = Vero E6 cell cytotoxicity, dose response, cytotoxicity control for non-replicating M. tuberculosis project, secondary assay (AID 492998); assay type: functional, VeroE6; settings: Vero C1008
[7] = THP-1 cell cytotoxicity, dose response, cytotoxicity control for non-replicating M. tuberculosis project (AID 489025); assay type: functional
cells = assay type: functional
[8] = biological target: T4, Short transient receptor potential channel 4 (Mus musculus, UniProt Q9QUQ5); test: mouse TRPC4 channel activators, dose response, cell-based, HEK293 TRPC4/mu-opioid, Fluo-4 calcium (AID 434937); assay type: functional
T4 sequence (Q9QUQ5 whole entry): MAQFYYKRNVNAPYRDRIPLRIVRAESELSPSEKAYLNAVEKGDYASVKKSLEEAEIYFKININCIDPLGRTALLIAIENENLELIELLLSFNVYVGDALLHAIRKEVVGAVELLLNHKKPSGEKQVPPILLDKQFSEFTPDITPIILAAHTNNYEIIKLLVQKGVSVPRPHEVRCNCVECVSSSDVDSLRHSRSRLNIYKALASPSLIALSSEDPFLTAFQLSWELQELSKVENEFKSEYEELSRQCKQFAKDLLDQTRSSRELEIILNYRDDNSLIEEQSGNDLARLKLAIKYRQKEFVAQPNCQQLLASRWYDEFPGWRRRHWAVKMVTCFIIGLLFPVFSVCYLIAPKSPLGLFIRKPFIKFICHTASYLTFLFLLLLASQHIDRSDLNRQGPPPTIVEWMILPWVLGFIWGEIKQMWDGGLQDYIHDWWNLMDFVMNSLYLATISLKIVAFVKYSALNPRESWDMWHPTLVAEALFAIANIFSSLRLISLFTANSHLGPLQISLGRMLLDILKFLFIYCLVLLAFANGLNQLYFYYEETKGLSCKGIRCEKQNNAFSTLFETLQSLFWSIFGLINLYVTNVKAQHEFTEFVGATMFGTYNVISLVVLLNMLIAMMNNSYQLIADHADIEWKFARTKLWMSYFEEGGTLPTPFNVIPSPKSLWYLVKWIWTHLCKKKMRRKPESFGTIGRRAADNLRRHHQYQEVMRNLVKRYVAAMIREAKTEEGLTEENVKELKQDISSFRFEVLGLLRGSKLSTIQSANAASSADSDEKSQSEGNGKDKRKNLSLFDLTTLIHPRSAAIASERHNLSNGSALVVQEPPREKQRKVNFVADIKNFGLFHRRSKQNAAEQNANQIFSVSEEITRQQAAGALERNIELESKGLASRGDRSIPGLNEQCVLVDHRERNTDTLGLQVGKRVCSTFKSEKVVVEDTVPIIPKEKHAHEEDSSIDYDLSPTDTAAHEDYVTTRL

[9] = cytotoxicity in KRAS-transformed pancreatic duct cells, primary screen, cell-based, fluorescence, HTS (AID 431); assay type: functional; settings: Homo sapiens;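 further: cell line used: HPDE-C7K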
[10] = cytotoxicity in HPDE-C7 cells, cell-based, fluorescence, HTS (AID 430); assay type: functional; settings: Homo sapiens
[11] = growth suppression of beta-catenin-knockout colon cells, dose response, cell-based, HCT116, human colon tumor (AID 1045); assay type: functional;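 further: HCT116 colon tumor cells with beta catenin knocked out; cells exposed to compound for 60 hours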
[12] = biological target: T5, Replicative DNA helicase DnaB (Mycobacterium tuberculosis, UniProt P9WMR3); test: DnaB intein splicing inhibitors, dose response, biochemical, cell-free fluorescence (AID 449749); assay type: functional
T5 sequence (P9WMR3 whole entry): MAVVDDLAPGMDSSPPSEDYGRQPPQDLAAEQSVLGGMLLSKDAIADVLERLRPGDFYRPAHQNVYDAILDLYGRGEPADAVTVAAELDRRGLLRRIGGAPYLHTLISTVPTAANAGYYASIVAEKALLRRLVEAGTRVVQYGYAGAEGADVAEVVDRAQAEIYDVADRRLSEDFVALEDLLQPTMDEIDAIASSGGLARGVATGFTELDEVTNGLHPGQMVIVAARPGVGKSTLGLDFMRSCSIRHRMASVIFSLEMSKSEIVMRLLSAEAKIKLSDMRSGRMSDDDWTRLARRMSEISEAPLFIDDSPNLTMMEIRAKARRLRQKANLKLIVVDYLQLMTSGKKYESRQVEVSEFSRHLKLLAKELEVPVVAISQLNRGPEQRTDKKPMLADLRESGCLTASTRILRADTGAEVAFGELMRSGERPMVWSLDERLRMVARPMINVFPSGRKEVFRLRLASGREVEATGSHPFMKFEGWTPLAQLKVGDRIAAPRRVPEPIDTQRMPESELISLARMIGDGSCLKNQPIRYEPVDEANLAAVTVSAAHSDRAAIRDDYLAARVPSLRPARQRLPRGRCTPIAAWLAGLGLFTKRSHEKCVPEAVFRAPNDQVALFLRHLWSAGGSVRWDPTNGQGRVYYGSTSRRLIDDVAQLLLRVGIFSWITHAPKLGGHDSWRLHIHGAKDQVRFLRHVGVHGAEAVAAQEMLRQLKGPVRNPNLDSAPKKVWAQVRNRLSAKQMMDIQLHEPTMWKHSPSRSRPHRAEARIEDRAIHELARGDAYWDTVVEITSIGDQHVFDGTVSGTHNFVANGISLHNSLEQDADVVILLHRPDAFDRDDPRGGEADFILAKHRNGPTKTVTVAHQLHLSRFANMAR

[13] = control 3'UTR Renilla luciferase suppression, dose response, counter-screen for Shn3 inhibitor project, cell-based, Clone20-Shn3RL, cherry-picked (AID 624133); assay type: functional
[14] = inhibitors of PGC1a acetylation in cells, dose response, cell-based, cherry-picked samples (AID 720514); assay type: functional;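 further: potency may reflect raised or lowered acetylation signal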
[15] = Shn3 3'UTR reporter inhibitors, dose response, cell-based, Clone20 osteoblasts, firefly luciferase, cherry-picked (AID 624132); assay type: functional;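 further: firefly luciferase luminescence from reporter carrying the Shn3 3'UTR in osteoblasts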
[16] = growth suppression of PTEN-null colon cells, dose response, cell-based, HCT116 PTEN knockout (AID 1047); assay type: functional;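 further: HCT116 colon tumor cells with PTEN knocked out; cells exposed to compound for 60 hours before readout; potency for loss of cell viability measured by luminescence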
INS1 = test: beta cell apoptosis inhibitors, cytokine rescue, dose response, luminescence, retest (AID 449756); assay type: functional, cell-based; settings: Rattus norvegicus;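 further: cell death triggered by IL-1 beta plus TNF-alpha plus IFN-gamma mixture; protective hits raise ATP signal compared with cytokine alone wells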
Protein RecA = biological target: T6, Protein RecA (Mycobacterium tuberculosis, UniProt P9WHJ3); test: Fluorescence Cell-Free Homogeneous Dose Retest to Identify Inhibitors of RecA-Intein Splicing Activity. [Related pubchem assays (depositor defined):AID2097, AID2223, AID489010, AID492950]; assay type: functional
T6 sequence (P9WHJ3 whole entry): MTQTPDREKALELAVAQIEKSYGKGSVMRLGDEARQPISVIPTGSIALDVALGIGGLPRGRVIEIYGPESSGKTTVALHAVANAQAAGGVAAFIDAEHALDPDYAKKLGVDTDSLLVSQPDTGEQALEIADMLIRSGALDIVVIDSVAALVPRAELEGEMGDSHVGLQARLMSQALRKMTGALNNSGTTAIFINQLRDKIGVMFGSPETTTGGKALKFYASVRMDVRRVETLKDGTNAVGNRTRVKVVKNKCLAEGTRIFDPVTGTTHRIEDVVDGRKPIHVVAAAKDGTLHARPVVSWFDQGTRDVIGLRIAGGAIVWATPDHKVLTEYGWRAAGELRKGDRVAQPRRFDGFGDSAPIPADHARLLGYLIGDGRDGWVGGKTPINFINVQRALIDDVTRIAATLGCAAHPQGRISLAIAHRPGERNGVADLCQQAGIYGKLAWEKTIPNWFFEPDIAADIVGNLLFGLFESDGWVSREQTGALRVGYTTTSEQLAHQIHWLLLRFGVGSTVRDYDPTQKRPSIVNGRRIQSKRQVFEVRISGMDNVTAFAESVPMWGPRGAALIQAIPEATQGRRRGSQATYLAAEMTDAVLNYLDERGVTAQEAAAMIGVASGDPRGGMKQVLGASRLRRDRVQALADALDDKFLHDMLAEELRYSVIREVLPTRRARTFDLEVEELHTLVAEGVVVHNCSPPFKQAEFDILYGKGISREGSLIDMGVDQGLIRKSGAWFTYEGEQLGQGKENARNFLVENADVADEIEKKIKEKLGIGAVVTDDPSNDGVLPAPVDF

[17] = biological target: G-protein coupled receptor 55 (Homo sapiens, UniProt Q9Y2T6); test: GPR55 agonists via beta-arrestin recruitment, primary screen, imaging, U2OS cells, beta-arrestin-GFP redistribution (AID 1961); assay type: functional
[18] = Fluorescence-based cell-based high throughput dose response assay for inhibitors of the interaction of nucleotide-binding oligomerization domain containing 2 (NOD2) and the receptor-interacting serine-threonine kinase 2 (RIPK2).; assay type: functional; settings: Homo sapiens
[19] = HepG2 cell cytotoxicity, dose response, cytotoxicity control for Shn3 inhibitor project, CellTiter-Glo, cherry-picked (AID 624134); assay type: functional, cell-based

T1 sequence (P98170 whole entry): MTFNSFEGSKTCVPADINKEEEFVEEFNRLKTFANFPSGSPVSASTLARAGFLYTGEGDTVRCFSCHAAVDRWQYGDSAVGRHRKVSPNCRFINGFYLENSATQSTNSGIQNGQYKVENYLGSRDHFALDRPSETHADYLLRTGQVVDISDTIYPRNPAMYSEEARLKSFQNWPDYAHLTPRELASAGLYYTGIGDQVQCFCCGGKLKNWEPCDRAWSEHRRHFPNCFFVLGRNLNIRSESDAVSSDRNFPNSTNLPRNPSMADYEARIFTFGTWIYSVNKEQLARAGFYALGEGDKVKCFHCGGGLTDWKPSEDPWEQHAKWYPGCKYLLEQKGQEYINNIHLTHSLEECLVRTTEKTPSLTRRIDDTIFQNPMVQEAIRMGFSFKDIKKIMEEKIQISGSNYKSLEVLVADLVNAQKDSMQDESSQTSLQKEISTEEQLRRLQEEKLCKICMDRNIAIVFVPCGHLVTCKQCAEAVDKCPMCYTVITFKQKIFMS
Sequence of G-protein coupled receptor 55 (Q9Y2T6 whole entry, the tested form may be a part): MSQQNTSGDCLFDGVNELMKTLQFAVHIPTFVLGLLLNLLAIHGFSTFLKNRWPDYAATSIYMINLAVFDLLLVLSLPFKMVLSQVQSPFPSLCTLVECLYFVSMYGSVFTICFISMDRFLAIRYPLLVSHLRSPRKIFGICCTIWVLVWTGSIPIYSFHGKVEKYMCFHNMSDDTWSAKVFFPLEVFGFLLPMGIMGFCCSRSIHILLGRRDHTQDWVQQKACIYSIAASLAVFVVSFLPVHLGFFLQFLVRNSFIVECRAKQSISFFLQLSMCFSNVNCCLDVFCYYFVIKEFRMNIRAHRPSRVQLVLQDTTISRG

## CC(C)(C)NC(=O)C(c1ccncc1)N(C(=O)Cn1nnc(-c2ccc(F)cc2)n1)c1ccccc1F (configuration not stated)
[1]
  IC50: > 100 µM (not active)
[2]
  IC50: > 100 µM (inactive)

## COC(=O)C1=C(C(=O)OC)N2C=CC=CC2(C)C(C(=O)OC)=C1C(=O)OC (configuration not stated)
[1]
  IC50: > 100 µM (not active)
[2]
  IC50: > 100 µM (inactive)

## Brc1ccc(C2Nc3cccc4cccc(c34)N2)o1
[3]
  IC50: > 79.4 µM (inactive)
[4]
  IC50: > 79.4 µM (inactive)
[5]
  IC50: > 79.4 µM (inactive)

## CN(C)C=C1C(=O)N(C2CCCCC2)C(=O)N(C2CCCCC2)C1=O
[6]
  CC50: > 20 µM (active)
[7]
  CC50: > 40 µM (active)
cells
  IC50: 11.2 µM (active)
[8]
  EC50: 9.44 µM (active)
[9]
  EC50: 13.7 µM (active)
[10]
  EC50: 9.27 µM (active)

## O=C(NCc1cccnc1)/C(=C/c1ccc(-c2ccc(Cl)cc2)o1)S(=O)(=O)c1ccccc1
[11]
  EC50: 4.08 µM (active)
[12]
  AC50: > 380 µM (inactive)
[13]
  AC50: 11.8 µM (active)
[14]
  AC50: 6.04 µM (active)
[15]
  AC50: 5.35 µM (active)
[16]
  EC50: 4.4 µM (active)
INS1
  AC50: 6.51 µM (active)
Protein RecA
  EC50: 27.3 µM (active)
[17]
  EC50: > 32 µM (inactive)
[18]
  IC50: 6.4 µM (active)
[19]
  AC50: 11.9 µM (active)

## CCOc1ccc(C(=O)Nc2cccc(NC(=O)c3cccs3)c2)cc1[N+](=O)[O-]
[1]
  IC50: > 100 µM (not active)
[2]
  IC50: > 100 µM (inactive)

## Cn1c(SCC(=O)N2CCN(c3ccccc3)CC2)nnc1-c1cc2ccccc2o1
[3]
  IC50: > 79.4 µM (inactive)
[4]
  IC50: > 79.4 µM (inactive)
[5]
  IC50: > 79.4 µM (inactive)

## CCn1cc(CNC(=O)c2cc([N+](=O)[O-])c(C)c([N+](=O)[O-])c2)cn1
[3]
  IC50: > 79.4 µM (inactive)
[4]
  IC50: > 79.4 µM (inactive)
[5]
  IC50: > 79.4 µM (inactive)
